Experimental data as given in patent US20200023003A1 (FENNEC PHARMACEUTICALS INC., priority 2018, published 2020).
Several values for one entry are separate records, joined by “and”; a condition that tells them apart may be missing. Equal values may be shown once. Read-outs that look alike come from different tables or passages of the source.

Experiments:
[1] = Text: It is a white to off-white crystalline solid, that is soluble in water, but insoluble in alcohol. The aqueous solution is practically neutral with a pH ranging from 6.5 to 9.0. The molecular formula is Na2S2O3. It has a molecular weight of 158.11 g/mol. The structural formula is: […]
[2] = Dynamic vapor sorption (DVS) isotherm; conditions: for DVS weight loss upon desorption: hysteresis observed
[3] = test system: pediatric patients being treated with platinum based chemotherapeutics
Text: Reference is made to International Patent Application Publication No. WO 2019/108592, which is a continuation of U.S. patent application Ser. No. 15/826,243, filed on Nov. 29, 2017, both of which are incorporated by reference herein in their entirety.

[4] = for Cisplatin Concentration: 24° C.
Description: The method uses a Waters Acquity H-Class HPLC system with an Imtakt Scherzo SW-C18 mixed mode column. The HPLC method conditions are outlined in Table 7. […] This range covers greater than two orders of magnitude at dose-relevant concentrations.
Each sample was transferred to an HPLC vial and placed in an autosampler chamber held at 24° C. Samples were injected onto the HPLC system approximately every 30 minutes to obtain 4 time-points for each sample. A gradient was run and the retention time and peak area were obtained.

[5] = test system: pediatric patients being treated with a platinum based chemotherapeutic
Description: These adverse events comprise grade 3 or grade 4 neutropenia, reduced glomerular filtration rates, increased serum creatinine, infection, hypomagnesemia, hypernatremia, vomiting, or nausea.

[6] = test system: small cell lung cancer cell cultures; conditions: cited from earlier work
[7] = animals
[8] = cited from earlier work
[9] = thiosulfate:cisplatin 5:1 (n = 2)
[10] = thiosulfate:cisplatin 6:1 (n = 2)
[11] = thiosulfate:cisplatin 10:1 (n = 2)

Molecule: O=S([O-])([O-])=S.[Na+].[Na+] [anhydrous sodium thiosulfate, Sodium thiosulfate anhydrous]
- solubility in alcohol ([1]; alcohol): insoluble
- solubility in water ([1]; water): soluble
- DVS weight change upon equilibration to 0% relative humidity ([2]; 0% relative humidity): minimal weight change
- DVS weight loss upon desorption [2]: 51%
- DVS weight gain upon sorption [2]: 165%

Molecule: Sodium thiosulfate [STS]
- ototoxicity in pediatric patients ([3]; STS after a platinum based chemotherapeutic (e.g., cisplatin)): significantly reduced ototoxicity
- hearing protection ([3]; dose equivalent to 5.1 g/m^2 sodium thiosulfate for injection, preliminary clinical studies): did not show hearing protection
- prevention of ototoxicity ([3]; doses equivalent to 6.4 to 12.8 g/m^2 sodium thiosulfate for injection): prevented ototoxicity
- survival ([3]; treatment 6 hours after completion of each CIS infusion): did not affect survival
- Half-life (time to reach 333/2 μM cisplatin) [4, 9]: 3.3 h
- Slope (linear regression of cisplatin conc. vs. time) [4, 9]: −0.80 Cisplatin Area/min
- Cisplatin Concentration ([4]; thiosulfate:cisplatin 5:1, 4 min): 323.7 µM
- Cisplatin Concentration ([4]; thiosulfate:cisplatin 5:1, 37 min): 294.2 µM and 294.0 µM
- Cisplatin Concentration ([4]; thiosulfate:cisplatin 5:1, 70 min): 266.8 µM and 268.0 µM
- Cisplatin Concentration ([4]; thiosulfate:cisplatin 5:1, 103 min): 243.7 µM and 245.3 µM
- Half-life (time to reach 333/2 μM cisplatin) [4, 10]: 3.07 h
- Slope (linear regression of cisplatin conc. vs. time) [4, 10]: −0.87 Cisplatin Area/min
- Cisplatin Concentration ([4]; thiosulfate:cisplatin 6:1, 5 min): 325.4 µM and 324.5 µM
- Cisplatin Concentration ([4]; thiosulfate:cisplatin 6:1, 38 min): 286.4 µM and 293.2 µM
- Cisplatin Concentration ([4]; thiosulfate:cisplatin 6:1, 71 min): 259.8 µM and 266.2 µM
- Cisplatin Concentration ([4]; thiosulfate:cisplatin 6:1, 104 min): 235.6 µM and 240.5 µM
- Half-life (time to reach 333/2 μM cisplatin) [4, 11]: 2.27 h
- Slope (linear regression of cisplatin conc. vs. time) [4, 11]: −1.13 Cisplatin Area/min
- Cisplatin Concentration ([4]; thiosulfate:cisplatin 10:1, 4 min): 319.5 µM
- Cisplatin Concentration ([4]; thiosulfate:cisplatin 10:1, 5 min): 320.3 µM
- Cisplatin Concentration ([4]; thiosulfate:cisplatin 10:1, 37 min): 269.4 µM
- Cisplatin Concentration ([4]; thiosulfate:cisplatin 10:1, 38 min): 278.5 µM
- Cisplatin Concentration ([4]; thiosulfate:cisplatin 10:1, 70 min): 235.2 µM
- Cisplatin Concentration ([4]; thiosulfate:cisplatin 10:1, 71 min): 239.6 µM
- Cisplatin Concentration ([4]; thiosulfate:cisplatin 10:1, 103 min): 205.6 µM
- Cisplatin Concentration ([4]; thiosulfate:cisplatin 10:1, 104 min): 209.3 µM
- serum sodium levels ([5]; doses of STS equivalent to 12.8 g/m^2 sodium thiosulfate for injection): small, transient increase
- renal or other toxicities ([5]; pediatric patients treated with a platinum based chemotherapeutic): not exacerbate renal or other toxicities
- effect of STS on cytotoxicity of etoposide ([6]; immediate or delayed addition of STS, incubation for 72 hours): no reduction of cytotoxicity
- effect of STS on anti-tumor activity of doxorubicin, carmustine (BCNU), paclitaxel, or methotrexate ([6]; similar studies): no reduction of anti-tumor activity
- distribution to the cochlea [7]: distribute to the cochlea
- biological half-life, range ([8]; dependent on dose): 16.5-182 minutes
- biological half-life ([8]; following IV administration): 0.65 hours
- excreted in the urine unmodified ([8]; following IV administration): Up to 95%

Molecule: O.O.O.O.O.O=S([O-])([O-])=S.[Na+].[Na+] [sodium thiosulfate pentahydrate]
- DVS weight loss upon desorption [2]: 51%
- DVS weight loss upon drying ([2]; drying): 27%
- DVS weight gain upon sorption [2]: 81%
